≈ marks a conversion by molar mass, not a printed value. Calls of active or inactive are those of the source. No cut-off for these calls is given here.
Tests used:
Measles morbillivirus [1] = assay: Antiviral activity against Measles virus by neutral red assay; format: functional, organism-based
Cytomegalovirus = assay: Antiviral activity against Cytomegalovirus; format: functional, organism-based
Measles morbillivirus [2] = assay: Antiviral activity against Measles virus; format: functional, organism-based
Vaccinia virus = assay: Antiviral activity against Vaccinia virus; format: functional, organism-based; conditions: Orthopoxvirus vaccinia
Cowpox virus = assay: Antiviral activity against Cowpox virus; format: functional, organism-based
[3] = Cytotoxicity against african green monkey CV1 cells; format: cell-based; conditions: Chlorocebus aethiops, CV-1

Nc1ncnc2c1ncn2[C@@H]1C[C@H](F)[C@@H](O)[C@H]1O
IC50 (Measles morbillivirus [1]): 1.2 µg/mL (≈ 4.74 µM)
Activity (Cytomegalovirus): inactive
IC50 (Measles morbillivirus [2]): 14 µg/mL (≈ 55.3 µM)
Activity (Vaccinia virus): inactive
Activity (Cowpox virus): inactive
IC50 [3]: 21 µg/mL (≈ 82.9 µM)

Nc1ncnc2c1ncn2[C@@H]1CC(F)(F)[C@@H](O)[C@H]1O
Activity (Cytomegalovirus): Active
Activity (Vaccinia virus): Active
Activity (Cowpox virus): Active

— ChEMBL document CHEMBL1153449, “A new synthesis and an antiviral assessment of the 4'-fluoro derivative of 4'-deoxy-5'-noraristeromycin” (Bioorg Med Chem, 2009)
